The record followed here is patent US20120148638A1, “Steroid Solavates” (BREATH LIMITED, priority 2009, published 2012).

Data set [1] can be described thus: Dry Sympatec PSD analysis (particle size distribution). The conditions noted are these: after isolation. It counts as physicochemical. The text has this:
Particle size or particle diameter as used herein can be suitably determined by laser diffraction based methods, for example as described in ISO Standard 13320-1. Laser diffraction particle sizing apparatus such as the Malvern Mastersizer 2000™ can be used.

The nature of data set [2]: Effect of humidity on prolonged storage: 20% relative humidity for 48 hours; DVS, DSC, TGA, PSD, SEM. It counts as physicochemical. As to conditions: for DVS mass plot, change of mass during storage: 20% RH, 48 hours; for Particle Size, cumulative distribution Q3 X10, post-storage sample / Particle Size, cumulative distribution Q3 X50, post-storage sample / Particle Size, cumulative distribution Q3 X90, post-storage sample: dry Sympatec PSD. The procedure:
In order to evaluate the effect of humidity on prolonged storage, processed BDP heptane solvate was subjected to 20% relative humidity (RH) for 48 hours.
The sample recovered after storage was analysed by DSC, TGA, PSD and SEM.
In order to evaluate the effect of humidity on prolonged storage processed BDP hydrate was subjected to 20% relative humidity (RH) for 48 hours.

Consider `CCC(=O)OCC(=O)[C@@]1(OC(=O)CC)[C@@H](C)C[C@H]2[C@@H]3CCC4=CC(=O)C=C[C@]4(C)[C@@]3(Cl)[C@@H](O)C[C@@]21C.O` [Comparative Example 1, beclomethasone diproprionate, reference compound], for which, in data set [1], the “Particle Size, cumulative distribution Q3 X10” value stood at 0.84 μ; the “Particle Size, cumulative distribution Q3 X50” value is on record as 3.58 μ; the “Particle Size, cumulative distribution Q3 X90” value was determined as 8.76 μ; the “Particle size distribution, result in words” value (“Particle size distribution” below) is “mostly ˜4 μm particles alongside larger clusters or agglomerates larger than 20 μm”.

In the case of `CCC(=O)OCC(=O)[C@@]1(OC(=O)CC)[C@@H](C)C[C@H]2[C@@H]3CCC4=CC(=O)C=C[C@]4(C)[C@@]3(Cl)[C@@H](O)C[C@@]21C.O` [Example 1, beclomethasone diproprionate], in data set [2] (listed as processed BDP heptane), the “DVS mass plot, change of mass during storage” value is “maintained full stability in terms of change of mass”. For the same molecule, in data set [2] (after 20% RH for 48 hours), the “Particle Size, cumulative distribution Q3 X10, post-storage sample” value is 0.68 μ; the “Particle Size, cumulative distribution Q3 X50, post-storage sample” value was 2.44 μ; the “Particle Size, cumulative distribution Q3 X90, post-storage sample” value was 5.29 μ. Moreover, the “DSC trace of stored sample, thermal behaviour post-humidity treatment” value in data set [2] (after 20% RH for 48 hours, listed as BDP heptane solvate) is on record as “no variation in the thermal behaviour”. In addition, in data set [1], the “Particle Size, cumulative distribution Q3 X10” value was found to be 0.69 μ; the “Particle Size, cumulative distribution Q3 X50” value is 2.41 μ; the “Particle Size, cumulative distribution Q3 X90” value amounted to 4.67 μ; the “Particle size distribution” value is recorded as “within the inhalation range”.

Regarding `CCC(=O)OCC(=O)[C@@]1(OC(=O)CC)[C@@H](C)C[C@H]2[C@@H]3CCC4=CC(=O)C=C[C@]4(C)[C@@]3(Cl)[C@@H](O)C[C@@]21C.O` [Example 3, beclomethasone diproprionate], the “Time to steady state of sample mass (DVS)” value in data set [2] (20% RH storage) is reported as “about 1500 minutes”. In addition, the “DVS mass plot, change of mass during storage” value in data set [2] is “initially underwent considerable weight loss due to partial dehydration”. In data set [2] (after 20% RH for 48 hours), the “DSC trace of stored sample, thermal behaviour post-humidity treatment” value is listed as “no variation in the thermal behavior”; the “PSD variation of particle size after storage” value is “no significant variation of particle size”; the “Particle Size, cumulative distribution Q3 X10, post-storage sample” value amounted to 0.51 μ; the “Particle Size, cumulative distribution Q3 X50, post-storage sample” value came to 1.37 μ. The “Particle Size, cumulative distribution Q3 X90, post-storage sample” value in data set [2] (after 20% RH for 48 hours) is recorded as 2.95 μ. Also, in data set [1], the “Particle Size, cumulative distribution Q3 X10” value came to 0.51 μ; the “Particle Size, cumulative distribution Q3 X50” value is on record as 1.35 μ; the “Particle Size, cumulative distribution Q3 X90” value worked out at 3.17 μ; the “Particle size distribution” value is reported as “well within the inhalation range”.

As to `CCC(=O)OCC(=O)[C@@]1(OC(=O)CC)[C@@H](C)C[C@H]2[C@@H]3CCC4=CC(=O)C=C[C@]4(C)[C@@]3(Cl)[C@@H](O)C[C@@]21C.O` [Comparative Example 2, beclomethasone diproprionate, reference compound], in data set [1], the “Particle Size, cumulative distribution Q3 X10” value stood at 1.78 μ; the “Particle Size, cumulative distribution Q3 X50” value worked out at 8.10 μ; the “Particle Size, cumulative distribution Q3 X90” value was determined as 15.10 μ.
